In US3991210A, “Acetamidine urinary antiseptics” (The Dow Chemical Company, priority 1975, dated 1976):
Counter-ions that a name gives are not always drawn.

Legend:
[1] = system: Escherichia coli; experiment: Antimicrobial activity of urine collected from mice after oral dosing, against Escherichia coli; format: in vivo; conditions: for urinary antiseptic activity, EC: single oral dose 56.2 mg/kg; as to urinary antiseptic activity, EC: key: +: urinary antiseptic activity and inhibition of microbial growth being observed; O: no urinary antiseptic activity and no inhibition of microbial growth are observed
Experimental: (§1) Separate groups of mice are fasted overnight, but are provided with water ad libitum prior to oral administration of a substituted amidine test compound. […] Urine is collected in sterile containers at intervals over the period from 1 to 24 hours after administration of the test compound. The collected urine is assayed for antimicrobial activity against Escherichia coli, Pseudomonas aeruginosa and a Proteus species, either Proteus vulgaris or Proteus mirabilis. Urine samples collected from the separate groups of mice administered one of 2-(4-chlorophenyl)acetamidine hydrochloride, 2-(4-bromophenyl)-acetamidinehydrochloride, 2-(4-chlorophenyl)acetamidoxime hydrochloride and 2-(4-bromophenyl)acetamidoxime hydrochloride are found to be active against all three test organisms.
(§2) The procedure of Example 1 is repeated, employing the substituted amidine compound 2-(4-bromophenyl)-acetamidine hydrochloride, and the known antiseptics gentamicin and nalidixic acid as test compounds. […]

[2] = system: Pseudomonas aeruginosa; experiment: Antimicrobial activity of urine collected from mice after oral dosing, against Pseudomonas aeruginosa; format: in vivo; conditions: for antimicrobial activity of urine against Pseudomonas: 60 mg/kg, similar operations; for antimicrobial activity of urine against Pseudomonas aeruginosa: oral, 50 mg/kg, urine collected 1 to 24 hours; for urinary antiseptic activity, PA: single oral dose 56.2 mg/kg; as to urinary antiseptic activity, PA: key: +: urinary antiseptic activity and inhibition of microbial growth being observed; O: no urinary antiseptic activity and no inhibition of microbial growth are observed
Experimental: as §1, §2

[3] = system: Proteus species, either Proteus vulgaris or Proteus mirabilis; experiment: Antimicrobial activity of urine collected from mice after oral dosing, against a Proteus species (Example 1); format: in vivo, Proteus vulgaris or Proteus mirabilis (urine from mice); conditions: for antimicrobial activity of urine against Proteus: 60 mg/kg, similar operations; for antimicrobial activity of urine against Proteus species: oral, 50 mg/kg, urine collected 1 to 24 hours
Experimental: as §1

[4] = system: Proteus mirabilis; experiment: Proteus mirabilis urinary tract infection in Holtzman rats (Example 5); format: in vivo; conditions: PO
Text: (§3) Several groups of Wistar rats are surgically prepared and given a urinary tract infection by injection into the lumen of the bladder of 0.1 milliliter of a brain-heart infusion broth culture of Proteus mirabilis, in a procedure similar to that of Miraglia, Transact. N.Y. Acad. Sc. 32, 337 (1970). One group is similarly prepared surgically, but is not infected with the test organism, providing an operated, non-infected control group. Three hours after the surgical operations are complete, the animals in three of the groups (the test groups) are orally administered 100 milligrams per kilogram of nalidixic acid, or 2-(4-bromophenyl)acetamidine hydrochloride at a dosage rate of 50 or 100 milligrams per kilogram. A fourth group is not administered any test compound to serve as an infected control group.
(§4) The animals in each group are weighed daily and the test compounds are administered to the test groups daily at the same dosage rate for a total of 14 days. At the end of the 14 day test period, the animals are sacrificed. Swabs of the kidney pelvis and samples of bladder urine are obtained and examined by bacteriological culture techniques, and pathological examinations are carried out.
The operations of Example 4 are repeated using six Holtzman rats per group and using nitrofurantoin instead of nalidixic acid.

[5] = system: Proteus vulgaris; experiment: Antimicrobial activity of urine collected from mice after oral dosing, against Proteus vulgaris (Example 2); format: in vivo; conditions: single oral dose 56.2 mg/kg; also: key: +: urinary antiseptic activity and inhibition of microbial growth being observed; O: no urinary antiseptic activity and no inhibition of microbial growth are observed
Experimental: Separate groups of mice are fasted overnight, but are provided with water ad libitum prior to oral administration of a substituted amidine test compound. The test compounds are administered orally at a dosage rate of 50 milligrams of test compound per kilogram of animal body weight in an aqueous carrier. Urine is collected in sterile containers at intervals over the period from 1 to 24 hours after administration of the test compound. The collected urine is assayed for antimicrobial activity against Escherichia coli, Pseudomonas aeruginosa and a Proteus species, either Proteus vulgaris or Proteus mirabilis. Urine samples collected from the separate groups of mice administered one of 2-(4-chlorophenyl)acetamidine hydrochloride, 2-(4-bromophenyl)-acetamidinehydrochloride, 2-(4-chlorophenyl)acetamidoxime hydrochloride and 2-(4-bromophenyl)acetamidoxime hydrochloride are found to be active against all three test organisms.
The procedure of Example 1 is repeated, employing the substituted amidine compound 2-(4-bromophenyl)-acetamidine hydrochloride, and the known antiseptics gentamicin and nalidixic acid as test compounds. Each test compound is administered in a single oral dose of 56.2 milligrams per kilogram; and separate urine samples are separately collected and assayed at intervals of 1, 4 and 24 hours after administration.

[6] = system: Proteus mirabilis; experiment: Proteus mirabilis urinary tract infection in Wistar rats, 14 days treatment (Example 4); format: in vivo; conditions: infected Wistar rats, oral
Text: as §3, §4

[7] = system: Proteus mirabilis; experiment: Proteus mirabilis urinary tract infection in rats, bacterial count per kidney (Example 6); format: in vivo; conditions: oral, three doses at 4, 28, 52 hours, 72 hours
Experimental: In a similar operation, a Proteus mirabilis urinary tract infection was established in rats using a similar surgical technique. In separate groups, the test compound 2-(4-bromophenyl)acetamidine p-toluene-sulfonate, or the reference compound nalidixic acid, were administered orally in three doses, 4, 28 and 52 hours after completion of the surgical technique used to establish the infection. Separate groups of rats were left untreated to serve as controls. After 72 hours, the animals were euthanized with carbon dioxide. The left kidney was removed, homogenized in 9 milliliters sterile saline solution, and fivefold dilutions of the resulting brei were made in brain-heart infusion broth. Bacterial counts in the dilutions were determined after 24 hours incubation at 37° C. The oral dose in milligrams per kilogram (mg/kg); millimoles per kilogram (mM); the number of animals in each group, and the base ten logarithm (Log10) of the bacterial count (number of organisms per kidney) are set out below.

[8] = Acute oral lethality (LD50) in mice; conditions: mouse, in vivo, mice, per os, 24 hours, read-out: LD50 (dosage lethal to 50 percent of the mice)
Experimental: Separate groups of mice are separately administered an aqueous composition containing 2-(4-bromophenyl)acetamidine hydrochloride. The compound is administered per os at various dosage rates, and the animals are held for 24 hours, after which deaths are recorded, and the LD50 (dosage lethal to 50 percent of the mice) is determined.

[9] = Standard pharmacological evaluation procedures in mice; format: in vivo; conditions: 60 mg/kg
Experimental: In other operations, 2-(4-bromophenyl)acetamidine hydrochloride is administered to mice at a dosage rate of 60 milligrams per kilogram in a series of standard pharmacological evaluation procedures.

[10] = oral, 50 mg/kg, urine collected 1 to 24 hours
[11] = 50 or 100 mg/kg per day, 14 days

Molecule: NC(Cc1ccccc1)=NO [2-phenylacetamidioxime hydrochloride, reference compound]
- antimicrobial activity of urine against E. coli ([1]; 60 mg/kg, similar operations): ineffective
- antimicrobial activity of urine against Pseudomonas [2]: ineffective
- antimicrobial activity of urine against Proteus [3]: ineffective

Molecule: Cl.NC(Cc1ccc(Br)cc1)=NO [2-(4-bromophenyl)acetamidoxime hydrochloride]
- antimicrobial activity of urine against E. coli [1, 10]: active
- antimicrobial activity of urine against Pseudomonas aeruginosa [2]: active
- antimicrobial activity of urine against Proteus species [3]: active

Molecule: O=C1CN(/N=C/c2ccc([N+](=O)[O-])o2)C(=O)N1 [Nitrofurantoin, nitrofurantoin, reference compound]
- Percent Infection (percent of surviving rats with Proteus infection of any degree) ([4]; 100 mg/kg): 33.0%
- Percent Pathology (percent total pathology signs observed over total possible observations times 100) ([4]; 100 mg/kg): 13.6%
- Percent Weight Gain ([4]; 100 mg/kg): 16.9%
- Percent Weight Gain, excluding one rat with unexplained severe weight loss ([4]; 100 mg/kg, excluding one rat): 20.7%

Molecule: Cl.NC(Cc1ccc([N+](=O)[O-])cc1)=NO [2-(4-nitrophenyl)acetamidoxime hydrochloride, reference compound]
- antimicrobial activity of urine against E. coli ([1]; 60 mg/kg, similar operations): effective against E. coli
- antimicrobial activity of urine against Pseudomonas [2]: not against the Pseudomonas or Proteus test organisms
- antimicrobial activity of urine against Proteus [3]: not against the Pseudomonas or Proteus test organisms

Molecule: Cl.NC(Cc1ccc(Cl)cc1)=NO [2-(4-chlorophenyl)acetamidoxime hydrochloride]
- antimicrobial activity of urine against E. coli [1, 10]: active
- antimicrobial activity of urine against Pseudomonas aeruginosa [2]: active
- antimicrobial activity of urine against Proteus species [3]: active

Molecule: NC(Cc1ccc(Cl)cc1Cl)=NO [2-(2,4-dichlorophenylacetamidoxime hydrochloride, reference compound]
- antimicrobial activity of urine against E. coli ([1]; 60 mg/kg, similar operations): ineffective
- antimicrobial activity of urine against Pseudomonas [2]: ineffective
- antimicrobial activity of urine against Proteus [3]: ineffective

Molecule: Cl.N=C(N)Cc1ccc(Cl)cc1 [2-(4-chlorophenyl)acetamidine hydrochloride]
- antimicrobial activity of urine against E. coli [1, 10]: active
- antimicrobial activity of urine against Pseudomonas aeruginosa [2]: active
- antimicrobial activity of urine against Proteus species [3]: active

Molecule: CCn1cc(C(=O)O)c(=O)c2ccc(C)nc21 [Nalidixic acid, nalidixic acid, reference compound]
- urinary antiseptic activity, EC ([1]; urine at 1 hour): +
- urinary antiseptic activity, EC ([1]; urine at 4 hours): +
- urinary antiseptic activity, PA ([2]; urine at 4 hours): +
- urinary antiseptic activity, PV ([5]; urine at 1 hour): +
- urinary antiseptic activity, PV ([5]; urine at 4 hours): +
- bacteriological culture of kidney pelvis swabs and bladder urine ([6]; 100 mg/kg per day, 14 days): bacteriologically sterile
- gross pathology attributable to the infection ([6]; 100 mg/kg per day, 14 days): No gross pathology attributable to the infection
- weight gain ([6]; 100 mg/kg per day, 14 days): gain weight normally
- Mean Bacterial Count (number of organisms per kidney) ([7]; 50 mg/kg): 3.20 Log10
- Mean Bacterial Count (number of organisms per kidney) ([7]; 100 mg/kg): 2.56 Log10

Molecule: Cl.N=C(N)Cc1ccc(Br)cc1 [2-(4-bromophenyl)acetamidine hydrochloride]
- antimicrobial activity of urine against E. coli [1, 10]: active
- urinary antiseptic activity, EC ([1]; urine at 1 hour): +
- urinary antiseptic activity, EC ([1]; urine at 4 hours): +
- urinary antiseptic activity, EC ([1]; urine at 24 hours): +
- antimicrobial activity of urine against Pseudomonas aeruginosa [2]: active
- urinary antiseptic activity, PA ([2]; urine at 1 hour): +
- urinary antiseptic activity, PA ([2]; urine at 4 hours): +
- antimicrobial activity of urine against Proteus species [3]: active
- urinary antiseptic activity, PV ([5]; urine at 1 hour): +
- urinary antiseptic activity, PV ([5]; urine at 4 hours): +
- LD50 at 24 h [8]: 562 mg/kg
- analgesic activity [9]: no significant
- anorectic activity [9]: no significant
- anti-thrombotic activity [9]: some anti-thrombotic activity
- antidepressant activity [9]: no significant
- hypotensive activity [9]: no significant
- sedative activity [9]: no significant
- weight gain rate ([6]; 50 mg/kg per day, 14 days): normal in all but one of the rats
- weight gain rate after the tenth day ([6]; 50 mg/kg per day, after the tenth day): normal for all the rats in this group after the tenth day
- weight gain rate ([6]; 100 mg/kg per day, 2-(4-bromophenyl)-acetamidine hydrochloride group): approximately mormal in all but two of the rats
- weight gain after the sixth day ([6]; 100 mg/kg per day, after the sixth day): normal weight gain is observed with all but one of the test animals
- gross pathological changes attributable to the infection [6, 11]: No gross pathological changes attributable to the infection
- infecting Proteus organism in swab and urine cultures [6, 11]: no evidence of the infecting Proteus organism
- bacteriological culture of swabs and urine ([6]; 50 or 100 mg/kg per day, 14 days, except slight E. coli growth in one rat): bacteriologically sterile
- growth of E. coli in urine and kidney swab cultures ([6]; 50 or 100 mg/kg per day, one of the rats, attributed to contamination during autopsy): slight growth of E. coli noted in the urine and one of the kidney swabs from one of the rats
- Percent Infection (percent of surviving rats with Proteus infection of any degree) ([4]; 50 mg/kg): 60.0%
- Percent Pathology (percent total pathology signs observed over total possible observations times 100) ([4]; 50 mg/kg): 13.6%
- Percent Weight Gain ([4]; 50 mg/kg): 16.6%
- Percent Infection (percent of surviving rats with Proteus infection of any degree) ([4]; 100 mg/kg): 20.0%
- Percent Pathology (percent total pathology signs observed over total possible observations times 100) ([4]; 100 mg/kg): 12.7%
- Percent Weight Gain ([4]; 100 mg/kg): 19.2%

Molecule: gentamicin
- urinary antiseptic activity, EC ([1]; urine at 1 hour): +
- urinary antiseptic activity, PV ([5]; urine at 1 hour): +
- urinary antiseptic activity, PV ([5]; urine at 4 hours): +

Molecule: Cl.N=C(N)COc1ccc(Cl)cc1 [2-(4-chlorophenoxy)acetamidine hydrochloride, reference compound]
- antimicrobial activity of urine against E. coli ([1]; 60 mg/kg, similar operations): ineffective
- antimicrobial activity of urine against Pseudomonas [2]: ineffective
- antimicrobial activity of urine against Proteus [3]: ineffective
